Measured values taken from paper PMC9687812, “Discovery of Trace Amine-Associated Receptor 1 (TAAR1) Agonist 2-(5-(4′-Chloro-[1,1′-biphenyl]-4-yl)-4H-1,2,4-triazol-3-yl)ethan-1-amine (LK00764) for the Treatment of Psychotic Disorders” (Biomolecules, 2022).
Read-outs that look alike come from different tables or passages of the source.

Key:
TAAR1 = biological target: T1, TAAR1 (Homo sapiens, UniProt Q96RJ0); assay: BRET-based cellular cAMP (EPAC biosensor) assay of TAAR1 agonism in transfected HEK-293 cells; details: for Emax: HEK293, read-out: Emax: maximum observed activation of TAAR1 relative to that observed for 1 μM of β-PEA
T1 sequence (Q96RJ0 1-339): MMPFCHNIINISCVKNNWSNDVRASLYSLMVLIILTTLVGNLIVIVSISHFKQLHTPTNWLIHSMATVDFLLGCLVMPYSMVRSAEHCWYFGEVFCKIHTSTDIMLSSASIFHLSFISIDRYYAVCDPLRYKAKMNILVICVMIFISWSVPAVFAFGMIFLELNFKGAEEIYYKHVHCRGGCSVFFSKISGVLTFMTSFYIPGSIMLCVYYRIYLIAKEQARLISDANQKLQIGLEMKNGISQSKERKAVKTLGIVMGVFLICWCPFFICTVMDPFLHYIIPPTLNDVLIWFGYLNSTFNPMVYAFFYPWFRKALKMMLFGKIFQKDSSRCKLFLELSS

[1] = TAAR1 activation, BRET assay, HEK-293, mean from 3 assays
[2] = relative to 1 μM β-PEA, mean from 3 BRET assays, errors ±5–10%

Compound	melting point	EC50 (TAAR1; [1])	Emax: maximum observed activation of TAAR1 relative to that observed for 1 μM of β-PEA (TAAR1; [2])	EC50 (TAAR1)	Emax (TAAR1)	Emax: maximum observed activation of TAAR1 relative to that observed for 1 μM of β-PEA (TAAR1)
Cl.NCCc1nnc(-c2ccc(C(F)(F)F)cc2)[nH]1 [Compound 15, 2-(5-(4-[Trifluoromethyl]phenyl)-4H-1,2,4-triazol-3-yl)ethan-1-amine Hydrochloride]	254 to 255 °C	inactive	inactive	–	–	–
Cl.NCCc1nnc(-c2ccc(F)cc2)[nH]1 [Compound 34, 2-(5-(4-Fluorophenyl)-4H-1,2,4-triazol-3-yl)ethan-1-amine Hydrochloride]	253 to 256 °C	–	–	> 1000 nM	169%	–
COc1ccc(-c2nnc(CCN)[nH]2)cc1.Cl [Compound 6, 2-(5-(4-Methoxyphenyl)-4H-1,2,4-triazol-3-yl)ethan-1-amine Hydrochloride]	248 to 250 °C	–	–	> 1000 nM	56%	–
Cl.NCCc1nnc(-c2ccc(OCc3cccc(F)c3)cc2)[nH]1 [Compound 44, 2-(5-(4-[(3-Fluorobenzyl)oxy]phenyl)-4H-1,2,4-triazol-3-yl)ethan-1-amine Hydrochloride]	214 to 216 °C	–	–	30 nM	112%	–
Cl.NCCc1nnc(-c2ccncc2)[nH]1 [Compound 10, 2-(5-(Pyridin-4-yl)-4H-1,2,4-triazol-3-yl)ethan-1-amine Hydrochloride]	257 to 258 °C	> 1000 nM	–	–	47%	–
Cc1cc(-c2nnc(CCN)[nH]2)ccc1OCc1cccc(F)c1.Cl [Compound 47, 2-(5-(4-[(3-Fluorobenzyl)oxy]-3-methylphenyl)-4H-1,2,4-triazol-3-yl)ethan-1-amine Hydrochloride]	215 to 216 °C	–	–	142 nM	106%	–
Cc1ccc(-c2nnc(CCN)[nH]2)cc1C.Cl [Compound 37, 2-(5-(3,4-Dimethylphenyl)-4H-1,2,4-triazol-3-yl)ethan-1-amine Hydrochloride]	231 to 234 °C	–	–	> 1000 nM	70%	–
Cc1ccc(Oc2ccc(-c3nnc(CCN)[nH]3)cc2)cc1C.Cl [Compound 51, 2-(5-(4-[3,4-Dimethylphenoxy]phenyl)-4H-1,2,4-triazol-3-yl)ethan-1-amine Hydrochloride]	201 to 203 °C	–	–	900 nM	77%	–
COc1cccc(-c2nnc(CCN)[nH]2)c1.Cl [Compound 7, 2-(5-(3-Methoxyphenyl)-4H-1,2,4-triazol-3-yl)ethan-1-amine Hydrochloride]	235 to 236 °C	–	–	910 nM	132%	–
Cl.NCCc1nnc(-c2ccc(OCc3ccccc3)cc2)[nH]1 [Compound 19, 2-(5-(4-(Benzyloxy)phenyl)-4H-1,2,4-triazol-3-yl)ethan-1-amine Hydrochloride]	238 to 240 °C	double-digit nanomolar range	–	26 nM	113%	–
Cl.NCCc1nnc(-c2ccccc2Br)[nH]1 [Compound 29, 2-(5-(2-Bromophenyl)-4H-1,2,4-triazol-3-yl)ethan-1-amine Hydrochloride]	194 to 196 °C	–	–	696 nM	111%	–
Cl.NCCc1nnc(-c2ccc(-c3ccc(OC(F)(F)F)cc3)cc2)[nH]1 [Compound 59, 2-(5-(4′-Trifluoromethoxy-(1,1′-biphenyl)-4-yl)-4H-1,2,4-triazol-3-yl)ethan-1-amine Hydrochloride]	299 to 300 °C	–	–	13 nM	95%	–
Cc1cc(C)cc(-c2nnc(CCN)[nH]2)c1.Cl [Compound 31, 2-(5-(3,5-Dimethylphenyl)-4H-1,2,4-triazol-3-yl)ethan-1-amine Hydrochloride]	232 to 234 °C	–	–	813 nM	117%	–
Cl.NCCc1nnc(-c2ccc(OCc3ccc(F)cc3)cc2)[nH]1 [Compound 45, 2-(5-(4-[(4-Fluorobenzyl)oxy]phenyl)-4H-1,2,4-triazol-3-yl)ethan-1-amine Hydrochloride]	220 to 222 °C	–	–	22 nM	114%	–
Cc1cc(-c2nnc(CCN)[nH]2)ccc1O.Cl [Compound 57, 4-(5-(2-Aminoethyl)-4H-1,2,4-triazol-3-yl)-2-methylphenol Hydrochloride]	158 to 160 °C	–	–	> 1000 nM	90%	–
Cl.NCCc1nnc(-c2cccc(O)c2)[nH]1 [Compound 55, 3-(5-(2-Aminoethyl)-4H-1,2,4-triazol-3-yl)phenol Hydrochloride]	234 to 235 °C	–	–	> 1000 nM	88%	–
Cl.NCCc1nnc(-c2ccc(-c3cccc(F)c3)cc2)[nH]1 [Compound 60, 2-(5-(3′-Fluoro-(1,1′-biphenyl)-4-yl)-4H-1,2,4-triazol-3-yl)ethan-1-amine Hydrochloride]	260 to 262 °C	–	–	26 nM	95%	–
CN(C)c1ccc(-c2nnc(CCN)[nH]2)cc1 [Compound 30, 4-(5-(2-Aminoethyl)-4H-1,2,4-triazol-3-yl)-N,N-dimethylaniline]	244 to 246 °C	730 nM	–	–	–	122
Cl.NCCc1nnc(-c2cc(Cl)cc(Cl)c2)[nH]1 [Compound 21, 2-(5-(3,5-Dichlorophenyl)-4H-1,2,4-triazol-3-yl)ethan-1-amine Hydrochloride]	222 to 224 °C	–	–	23 nM	112%	–
Cl.NCCc1nnc(-c2ccccc2OC(F)(F)F)[nH]1 [Compound 39, 2-(5-(2-[Trifluoromethoxy]phenyl)-4H-1,2,4-triazol-3-yl)ethan-1-amine Hydrochloride]	208 to 211 °C	inactive	inactive	–	–	–
Cc1cc(-c2nnc(CCN)[nH]2)ccc1OCc1ccc(F)cc1.Cl [Compound 48, 2-(5-(4-[(4-Fluorobenzyl)oxy]-3-methylphenyl)-4H-1,2,4-triazol-3-yl)ethan-1-amine Hydrochloride]	182 to 183 °C	–	–	163 nM	98%	–
Cl.NCCc1nnc(-c2ccc(-c3cc(F)cc(F)c3)cc2)[nH]1 [Compound 65, 2-(5-(3′,5′-Difluoro-(1,1′-biphenyl)-4-yl)-4H-1,2,4-triazol-3-yl)ethan-1-amine Hydrochloride]	260 to 262 °C	–	–	13 nM	105%	–
Cl.NCCc1nnc(-c2cnccn2)[nH]1 [Compound 38, 2-(5-(Pyrazin-2-yl)-4H-1,2,4-triazol-3-yl)ethan-1-amine Hydrochloride]	184 to 186 °C	inactive	inactive	–	–	–
Cl.NCCc1nnc(-c2ccc(OCc3ccccc3F)cc2)[nH]1 [Compound 43, 2-(5-(4-[(2-Fluorobenzyl)oxy]phenyl)-4H-1,2,4-triazol-3-yl)ethan-1-amine Hydrochloride]	232 to 235 °C	–	–	45 nM	114%	–
Cl.NCCc1nnc(C(c2ccccc2)c2ccccc2)[nH]1 [Compound 13, 2-(5-(Diphenylmethyl)-4H-1,2,4-triazol-3-yl)ethan-1-amine Hydrochloride]	236 to 237 °C	inactive	inactive	–	–	–
Cc1cc(-c2nnc(CCN)[nH]2)ccc1Br.Cl [Compound 12, 2-(5-(4-Bromo-3-methylphenyl)-4H-1,2,4-triazol-3-yl)ethan-1-amine Hydrochloride]	251 to 252 °C	–	–	812 nM	87%	–
Cl.NCCc1nnc(-c2ccc(-c3cccc(C(F)(F)F)c3)cc2)[nH]1 [Compound 63, 2-(5-(3′-Trifluoromethyl-(1,1′-biphenyl)-4-yl)-4H-1,2,4-triazol-3-yl)ethan-1-amine Hydrochloride]	210 to 212 °C	–	–	250 nM	76%	–
COc1cc(OC)cc(-c2nnc(CCN)[nH]2)c1.Cl [Compound 33, 2-(5-(3,5-Dimethoxyphenyl)-4H-1,2,4-triazol-3-yl)ethan-1-amine Hydrochloride]	245 to 247 °C	> 1000 nM	–	–	55%	–
Cl.NCCc1nnc(-c2ccc(OC(F)(F)F)cc2)[nH]1 [Compound 9, 2-(5-(4-[Trifluoromethoxy]phenyl)-4H-1,2,4-triazol-3-yl)ethan-1-amine Hydrochloride]	253 to 254 °C	–	–	310 nM	116%	–
